Reference: patent publication US12398097B2, “WDR5-MYC inhibitors” (Vanderbilt University, priority 2019, dated 2025)
pKi: −log10 of the molar value.

These molecules were tested against WDR5 (Homo sapiens, UniProt P61964) (assay: Competition-based fluorescence polarization anisotropy assay). Conditions: binding to WDR5; displacement of FITC-labeled small molecule probe (analogous to Example J2 or HCH-25) or peptide probe FITC-AHx-SEEEIDVVSV; pH 6.0; Ki converted from IC50.
How it was run: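 Competition fluorescence polarization anisotropy binding to WDR5 using a FITC-labeled peptide probe or a fluorescently labeled small-molecule probe. Buffer: 200 mM phosphate, 300 mM NaCl, 0.5 mM TCEP, 0.1% Chaps, pH 6.0. Displacement data were converted to Ki.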
Work on `CS(=O)(=O)c1cc(Br)cc(NS(=O)(=O)c2cc(Br)cc(OC(F)(F)F)c2O)c1` [Example S3, 5-Bromo-N-(3-bromo-5-(methylsulfonyl)phenyl)-2-hydroxy-3-(trifluoromethoxy)benzenesulfonamide] yielded a pKi of 6.30. Work on `CS(=O)(=O)c1cc(Cl)cc(NS(=O)(=O)c2cc(Br)cc(OC(F)(F)F)c2O)c1` [Example S4, 5-Bromo-N-(3-chloro-5-(methylsulfonyl)phenyl)-2-hydroxy-3-(trifluoromethoxy)benzenesulfonamide] yielded a pKi of 6.07. Molecule `CCc1cc(Br)cc(S(=O)(=O)Nc2cc(Cl)cc(S(C)(=O)=O)c2)c1O` [Example S5, 5-Bromo-N-(3-chloro-5-(methylsulfonyl)phenyl)-3-ethyl-2-hydroxybenzenesulfonamide] has a pKi of 6.21. For `CS(=O)(=O)c1cc(Cl)cc(NS(=O)(=O)c2cc(Br)ccc2O)c1` [Example S6, 5-Bromo-N-(3-chloro-5-(methylsulfonyl)phenyl)-2-hydroxybenzenesulfonamide], the pKi was 5.91. For `CS(=O)(=O)c1cc(Cl)cc(NS(=O)(=O)c2cc(Br)cc(Cl)c2O)c1` [Example S8, 5-Bromo-3-chloro-N-(3-chloro-5-(methylsulfonyl)phenyl)-2-hydroxybenzenesulfonamide], the pKi was 6.77. Work on `CS(=O)(=O)c1cc(NS(=O)(=O)c2cc(Br)ccc2O)cc(C2CC2)c1` [Example S9, 5-Bromo-N-(3-cyclopropyl-5-(methylsulfonyl)phenyl)-2-hydroxybenzenesulfonamide] yielded a pKi of 5.99. `CS(=O)(=O)c1cc(NS(=O)(=O)c2cc(Br)cc(Cl)c2O)cc(C2CC2)c1` [Example S10, 5-Bromo-3-chloro-N-(3-cyclopropyl-5-(methylsulfonyl)phenyl)-2-hydroxybenzenesulfonamide] was tested, and the pKi was 6.77. `CS(=O)(=O)c1cc(NS(=O)(=O)c2cc(Br)ccc2O)cc(OC(F)(F)F)c1` [Example S11, 5-Bromo-2-hydroxy-N-(3-(methylsulfonyl)-5-(trifluoromethoxy)phenyl)benzenesulfonamide] showed a pKi of 6.09. `CS(=O)(=O)c1cc(NS(=O)(=O)c2cc(Br)cc(Cl)c2O)cc(OC(F)(F)F)c1` [Example S12, 5-Bromo-3-chloro-2-hydroxy-N-(3-(methylsulfonyl)-5-(trifluoromethoxy)phenyl)benzenesulfonamide] showed a pKi of 7.15. In the case of `CS(=O)(=O)c1cc(NS(=O)(=O)c2cc(Br)ccc2O)cc(S(F)(F)(F)(F)F)c1` [Example S13, 5-Bromo-2-hydroxy-N-(3-(methylsulfonyl)-5-(pentafluoro-λ^6-sulfaneyl)phenyl)benzenesulfonamide], the pKi was 6.38. `CS(=O)(=O)c1cc(NS(=O)(=O)c2cc(Br)cc(Cl)c2O)cc(S(F)(F)(F)(F)F)c1` [Example S14, 5-Bromo-3-chloro-2-hydroxy-N-(3-(methylsulfonyl)-5-(pentafluoro-λ^6-sulfaneyl)phenyl)benzenesulfonamide] gave a pKi of 7.52. With `O=S(=O)(Nc1cc(C2CC2)cc(S(=O)(=O)C2CCCO2)c1)c1cc(Br)ccc1O` (stereo not shown) [Example S15-2] the pKi was 5.06. `O=S(=O)(Nc1cc(C2CC2)cc(S(=O)(=O)C2CCCO2)c1)c1cc(Br)cc(Cl)c1O` (stereo not shown) [Example S16, 5-Bromo-3-chloro-N-(3-cyclopropyl-5-((tetrahydrofuran-2-yl)sulfonyl)phenyl)-2-hydroxybenzenesulfonamide] was tested, and the pKi was 6.70. Work on `CS(=O)(=O)c1cc(Cl)cc(NS(=O)(=O)c2cc(Br)cc(Cl)c2O)c1O` [Example S16-2, 5-Bromo-3-chloro-N-(5-chloro-2-hydroxy-3-(methylsulfonyl)phenyl)-2-hydroxybenzenesulfonamide] yielded a pKi of 7.70. Work on `CS(=O)(=O)c1cc(Cl)cc(NS(=O)(=O)c2cc(Br)ccc2O)c1O` [Example S17, 5-Bromo-N-(5-chloro-2-hydroxy-3-(methylsulfonyl)phenyl)-2-hydroxybenzenesulfonamide] yielded a pKi of 7.05. With `CS(=O)(=O)c1cc(S(F)(F)(F)(F)F)cc(NS(=O)(=O)c2cc(Br)cc(Cl)c2O)c1O` [Example S18, 5-Bromo-3-chloro-2-hydroxy-N-(2-hydroxy-3-(methylsulfonyl)-5-(pentafluoro-λ^6-sulfaneyl)phenyl)benzenesulfonamide] the pKi was 7.52. Work on `CS(=O)(=O)c1cc(S(F)(F)(F)(F)F)cc(NS(=O)(=O)c2cc(Br)ccc2O)c1O` [Example S19, 5-Bromo-2-hydroxy-N-(2-hydroxy-3-(methylsulfonyl)-5-(pentafluoro-λ^6-sulfaneyl)phenyl)benzenesulfonamide] yielded a pKi of 7.00. `CS(=O)(=O)c1cc(S(F)(F)(F)(F)F)cc(NS(=O)(=O)c2ccc(Br)cc2O)c1O` [Example S20, 4-Bromo-2-hydroxy-N-(2-hydroxy-3-(methylsulfonyl)-5-(pentafluoro-λ6-sulfaneyl)phenyl)benzenesulfonamide] showed a pKi of 5.37. Molecule `CCS(=O)(=O)c1cc(Cl)cc(NS(=O)(=O)c2cc(Br)cc(Cl)c2O)c1O` [Example S21, 5-Bromo-3-Chloro-N-(5-chloro-3-(ethylsulfonyl)-2-hydroxyphenyl)-2-hydroxybenzenesulfonamide] has a pKi of 6.62. With `CCS(=O)(=O)c1cc(Cl)cc(NS(=O)(=O)c2cc(Br)ccc2O)c1O` [Example S22, 5-Bromo-N-(5-chloro-3-(ethylsulfonyl)-2-hydroxyphenyl)-2-hydroxybenzenesulfonamide] the pKi was 6.60. Molecule `CC(C)S(=O)(=O)c1cc(Cl)cc(NS(=O)(=O)c2cc(Br)cc(Cl)c2O)c1O` [Example S23.1, 5-Bromo-3-chloro-N-(5-chloro-2-hydroxy-3-(isopropylsulfonyl)phenyl)-2-hydroxybenzenesulfonamide] has a pKi of 6.89. `CC(C)[S+]([O-])c1cc(Cl)cc(NS(=O)(=O)c2cc(Br)cc(Cl)c2O)c1O` (stereo not shown) [Example S23.2, 5-Bromo-3-chloro-N-(5-chloro-2-hydroxy-3-(isopropylsulfinyl)phenyl)-2-hydroxybenzenesulfonamide] was tested, and the pKi was 6.48. `CC(C)[S+]([O-])c1cc(Cl)cc(NS(=O)(=O)c2cc(Br)ccc2O)c1O` (stereo not shown) [Example S23.3, 5-Bromo-N-(5-chloro-2-hydroxy-3-(isopropylsulfinyl)phenyl)-2-hydroxybenzenesulfonamide] showed a pKi of 6.44. `CS(=O)(=O)c1cc(C(F)(F)F)cc(NS(=O)(=O)c2cc(Br)ccc2O)c1O` [Example S25, 5-Bromo-3-2-hydroxy-N-(2-hydroxy-3-(methylsulfonyl)-5-(trifluoromethyl)phenyl)benzenesulfonamide] gave a pKi of 7.05. In the case of `CS(=O)(=O)c1cc(C2CC2)cc(NS(=O)(=O)c2cc(Br)cc(Cl)c2O)c1O` [Example S25-2, 5-Bromo-3-chloro-N-(5-cyclopropyl-2-hydroxy-3-(methylsulfonyl)phenyl)-2-hydroxybenzenesulfonamide], the pKi was 7.00. With `CS(=O)(=O)c1cc(C2CC2)cc(NS(=O)(=O)c2cc(Br)ccc2O)c1O` [Example S26, 5-Bromo-N-(5-cyclopropyl-2-hydroxy-3-(methylsulfonyl)phenyl)-2-hydroxybenzenesulfonamide] the pKi was 6.62. Work on `NS(=O)(=O)c1cc(Cl)cc(NS(=O)(=O)c2cc(Br)cc(Cl)c2O)c1O` [Example S27, 5-Bromo-3-chloro-N-(5-chloro-2-hydroxy-3-sulfamoylphenyl)-2-hydroxybenzenesulfonamide] yielded a pKi of 6.44. `CNS(=O)(=O)c1cc(Cl)cc(NS(=O)(=O)c2cc(Br)cc(Cl)c2O)c1O` [Example S28, 5-bromo-3-chloro-N-(5-chloro-2-hydroxy-3-(N-methylsulfamoyl)phenyl)-2-hydroxybenzenesulfonamide] gave a pKi of 4.68. With `CNS(=O)(=O)c1cc(Cl)cc(NS(=O)(=O)c2cc(Br)ccc2O)c1O` [Example S29, 5-bromo-N-(5-chloro-2-hydroxy-3-(N-methylsulfamoyl)phenyl)-2-hydroxybenzenesulfonamide] the pKi was 4.81. With `COCCNS(=O)(=O)c1cc(Cl)cc(NS(=O)(=O)c2cc(Br)cc(Cl)c2O)c1O` [Example S30, 5-bromo-3-chloro-N-(5-chloro-2-hydroxy-3-(N-(2-methoxyethyl)sulfamoyl)phenyl)-2-hydroxybenzenesulfonamide] the pKi was 5.52. `COCCNS(=O)(=O)c1cc(Cl)cc(NS(=O)(=O)c2cc(Br)ccc2O)c1O` [Example S31, 5-bromo-N-(5-chloro-2-hydroxy-3-(N-(2-methoxyethyl)sulfamoyl)phenyl)-2-hydroxybenzenesulfonamide] was tested, and the pKi was 6.19. `O=S(=O)(Nc1cc(Cl)cc(S(=O)(=O)NCC2CCCO2)c1O)c1cc(Br)cc(Cl)c1O` (stereo not shown) [Example S32, 5-Bromo-3-chloro-N-(5-chloro-2-hydroxy-3-(N-((tetrahydrofuran-2-yl)methyl)sulfamoyl)phenyl)-2-hydroxybenzenesulfonamide] showed a pKi of 6.36. `O=S(=O)(Nc1cc(Cl)cc(S(=O)(=O)NCC2CCCO2)c1O)c1cc(Br)ccc1O` (stereo not shown) [Example S32-2, 5-Bromo-N-(5-chloro-2-hydroxy-3-(N-((tetrahydrofuran-2-yl)methyl)sulfamoyl)phenyl)-2-hydroxybenzenesulfonamide] gave a pKi of 6.28. With `CN1CCN(CCNS(=O)(=O)c2cc(Cl)cc(NS(=O)(=O)c3cc(Br)cc(Cl)c3O)c2O)CC1` [Example S33, 5-Bromo-3-chloro-N-(5-chloro-2-hydroxy-3-(N-(2-(4-methylpiperazin-1-yl)ethyl)sulfamoyl)phenyl)-2-hydroxybenzenesulfonamide] the pKi was 6.14. Molecule `CCN(CC)CCSc1cc(Cl)cc(NS(=O)(=O)c2cc(Br)cc(Cl)c2O)c1` [Example S34, 5-Bromo-3-chloro-N-(3-chloro-5-((2-(diethylamino)ethyl)thio)phenyl)-2-hydroxybenzenesulfonamide] has a pKi of 6.29. For `CCN(CC)CCS(=O)(=O)c1cc(Cl)cc(NS(=O)(=O)c2cc(Br)cc(Cl)c2O)c1` [Example S35, 5-Bromo-3-chloro-N-(3-chloro-5-((2-(diethylamino)ethyl)sulfonyl)phenyl)-2-hydroxybenzenesulfonamide], the pKi was 6.47. `CC(C)N(CCSc1cc(Cl)cc(NS(=O)(=O)c2cc(Br)cc(Cl)c2O)c1)C(C)C` [Example S36, 5-Bromo-3-chloro-N-(3-chloro-5-((2-(diisopropylamino)ethyl)thio)phenyl)-2-hydroxybenzenesulfonamide] showed a pKi of 6.11.
